Measured values as given in ChEMBL document CHEMBL3045741, “Antithyroid agents and QSAR studies: inhibition of lactoperoxidase-catalyzed iodination reaction by isochromene-1-thiones” (Med Chem Res, 2013).
The source made the active and inactive calls. The rule behind the calls is not given here.

How the values were obtained:
Lactoperoxidase = Lactoperoxidase (Bos taurus, UniProt P80025); assay: Inhibition of Bos taurus (bovine) milk lactoperoxidase-catalyzed iodination of L-tyrosine substrate by reverse phase HPLC analysis
[1] = biological target: Lactoperoxidase (Bos taurus) (UniProt P80025); assay: Irreversible inhibition of Bos taurus (bovine) milk lactoperoxidase using L-tyrosine as substrate at 30 uM in presence of 0.08 to 0.8 mM H2O2 by reverse phase HPLC analysis
[2] = biological target: Lactoperoxidase (Bos taurus) (UniProt P80025); assay: Non-competitive inhibition of Bos taurus (bovine) milk lactoperoxidase using varying concentration of L-tyrosine and fixed concentration of H2O2 as substrate by Lineweaver-burk plot analysis
[3] = biological target: Lactoperoxidase (Bos taurus) (UniProt P80025); assay: Non-competitive inhibition of Bos taurus (bovine) milk lactoperoxidase using fixed concentration of L-tyrosine and varying concentration of H2O2 as substrate by Lineweaver-burk plot analysis

Structure (SMILES) | IC50 (Lactoperoxidase) [µM] | further results
Cc1ccc(-c2cc3ccccc3c(=O)o2)cc1 | 93.8 | –
S=c1oc(-c2ccoc2)cc2ccccc12 | 26.5 | –
S=c1oc(-c2ccc(Cl)cc2)cc2ccccc12 | 26.4 | –
S=c1oc(C2CCCCC2)cc2ccccc12 | 5.5 | –
Cn1cc[nH]c1=S [METHIMAZOLE] | 8.4 | –
COc1ccc(-c2cc3ccccc3c(=S)o2)cc1 | 8.4 | inhibition [1]: Active
S=c1oc(-c2cccs2)cc2ccccc12 | 14.3 | –
O=c1oc(-c2ccco2)cc2ccccc12 | > 200 | –
S=c1oc(-c2cccc3ccccc23)cc2ccccc12 | 5.1 | inhibition [1]: Active; inhibition [2]: Active; inhibition [3]: Active
S=c1oc(-c2ccco2)cc2ccccc12 | 17.8 | –
Cc1ccc(-c2cc3ccccc3c(=S)o2)cc1 | 6.2 | inhibition [2]: Active; inhibition [3]: Active
O=c1oc(-c2ccccc2)cc2ccccc12 | > 200 | –
S=c1oc(-c2ccccc2)cc2ccccc12 | 13.9 | –
CCCCc1cc2ccccc2c(=S)o1 | 17.4 | –
O=c1oc(-c2cccc3ccccc23)cc2ccccc12 | 34.6 | –
COc1ccc(-c2cc3ccccc3c(=O)o2)cc1 | > 200 | –
CC(C)(C)c1cc2ccccc2c(=S)o1 | 21.9 | –
O=c1oc(-c2ccc(Cl)cc2)cc2ccccc12 | 105 | –
